The text below walks through data of patent US20060247187A1, “Attenuation of disorders by aminoglycosides” (priority 2005, published 2006).

The conditions of data set [1]: cited from earlier work.
The subject of data set [2] is Male Sprague-Dawley rats. As to the kind of experiment: Oxidation, lipoxidation and glycation products (AOPP, MDA-linked fluorescence, AGE fluorescence, LMW-AGEs, CML staining). How it is done: Serum and tissue advanced oxidation products (AOPP) were measured by spectrophotometric methods (Martin-Gallan et al., 2003). This assay largely detects the presence of protein dityrosine modifications (Witko-Sarsat et al., 2003). Briefly, 200 μl of homogenised renal tissue or serum was diluted 1:3 in PBS, 100 μL of 1.16 mol/L potassium iodide (KI, Sigma) were then added to each tube, followed two minutes later by 200 μL of concentrated acetic acid. […] Concentrations of AOPP were expressed as arbitrary units calibrated to a chloramine T standard.
Tissue-linked glycoxidation products were measured, based on tissue fluorescence using a flow injection assay (Wrobel et al., 1998). Briefly, renal tissue was enymatically hydrolysed using proteinase K. The solution was then centrifuged to remove sediment and the aqueous phase injected directly into a water column flowing through a fluorescence detector (Waters 470, Waters USA) and UV detector (Hewlett-Packard, USA) in series. Pentosidine-linked fluorescence was measured at excitation 325 nm with an emission at 385 nm (Meng et al., 2000). The level of lipid peroxidation was estimated by determining the malondialdehyde (MDA)-linked fluorescence (390 nm/emission 460 nm) (Meng et al., 1998). The values of fluorescence were corrected against those of the blanks containing the same concentration of proteinase K and adjusted for the peptide content using the absorbance at 280 nm. The data were expressed in arbitrary units, with […] being given the reference value of 1. Finally, paraffin sections were stained for CML-AGEs

Data set [3] has as its system Male Sprague-Dawley rats. As to the kind of experiment: Serum and urine parameters after aminoguanidine pre-treatment but before gentamicin therapy. Particulars: p<0.05.
Protocol: Male Sprague-Dawley rats were randomly assigned to one of three groups:
Group 2 (Gentamicin+aminoguanidine): rats received aminoguanidine 4 g/L in their drinking water for 2 weeks, prior to gentamicin dosing as described above.
Prior to gentamicin dosing and on day 7 of the study, animals were placed individually in metabolic cages and 24 h urine collected and food intake recorded. Blood was collected into heparinised tubes, after being obtained from the tail of each rat, at baseline and on days 2 and 5. The blood samples were always obtained before the daily injections were given, as well as being taken 24 hours following the last injection and at the time of sacrifice. […]
Standard physiological and biochemical parameters including body weight and food and water intake, were measured before and after gentamicin dosing regimens. […] Serum gentamicin was measured in serum by a polarisation fluorescence immunoassay in a TDx analyser (Abbott Diagnostics, Abbott Park, Ill., USA). […] To quantify enzymuria, urinary excretion of alanine transaminase (ALT), aspartate transferase (AST), alkaline phosphatase (AP) and lactate dehydrogenase (LDH) were measured using a Hitachi 747 Automatic Analyser, as above. […] Therefore the urinary excretion of the electrolytes were measured in this experimental protocol and expressed as the fractional excretion (FE), which is calculated as: FEx(%)=(Ux×PCr)/(Px×UCr) […]
The nature of data set [4]: Serum and renal cortical gentamicin levels. Type of data set: in vivo, rat. The method, then:
(Roche Diagnostics, Basel, Switzerland). […] Gentamicin standards were prepared in normal rat sera. […] To measure the gentamicin concentrations in the renal cortex, the kidney was processed and analysed. The upper pole of the vertically divided right kidney was removed and snap-frozen at minus 80° C. until use. […] After centrifugation, a 100 μl aliquot of the supernatant was used immediately for gentamicin determination by HPLC. […] Fluorescence detection was set at excitation 340 nm, emission 418 nm. The […] gentamicin peak was used to quantify the total gentamicin content. Calibration curves of the components were prepared in a drugfree supernatant of the renal homogenates and were linear over the concentration range 50-500 μg/ml. […] Renal cortical gentamicin concentrations were expressed per milligram of renal cortical protein.

Data set [5] relates to Male Sprague-Dawley rats. As to the kind of experiment: Morphological examination of the kidney (PAS, propidium iodide apoptosis, GPX-3 in situ hybridization). The format is in vivo, rat. How it is done: Paraffin embedded sections were stained with periodic acid-Schiff (PAS) and examined by light microscopy to determine the extent of gentamicin toxicity (Kopple et al., 2002). In addition, tubular apoptosis was assessed by staining for DNA fragmentation using propidium iodide. Briefly, sections (3 μm) from the same paraffin blocks used for PAS staining were de-paraffinised with xylene and rehydrated, soaked with PBS pH 7.4 and incubated for 10 minutes with propidium iodide 10 μg/ml and RNAse A 100 μg/ml at 37° C. Sections were subsequently washed extensively with PBS, rinsed with distilled water and mounted with an aqueous media (AFT, Behring Diagnostics, Somerville, N.J.). On a fluorescence microscope, renal tissue was identified on bright field and then, using a rhodamine filter set, the normal and apoptotic tubular nuclei were counted. Twenty cortical windows were assessed in each animal. The results were expressed as a mean number of fragmented and condensed nuclei (apoptotic cells) per window. As a marker of proximal tubular injury, renal gene expression of extracellular glutathione peroxidase, GPX-3 (Yazar et al., 2003) was also assessed in paraffin fixed sections by in situ hybridization

Data set [6] relates to Male Sprague-Dawley rats. As to the kind of experiment: Gentamicin nephrotoxicity model: serum and urine biochemistry, renal function, kidney weight after 8 days of treatment. How it is done:
Group 1 (Gentamicin): These animals received timed daily subcutaneous injections of gentamicin (50 mg/kg/d) in divided doses, delivered during the resting period, for 8 consecutive days.
Group 3 (Sham): These animals received twice daily subcutaneous injections of equivalent amount of vehicle (0.9% NaCl) according to the same timed protocol for 8 consecutive days.
Kidneys were harvested and blood collections were performed. […] One kidney was immediately removed for histological examination.
(Roche Diagnostics, Basel, Switzerland). […] Gentamicin standards were prepared in normal rat sera.
Serum and urine creatinine were measured by HPLC.

The test system of data set [7] is Male Sprague-Dawley rats. The settings on record: serum, after treatment.
Protocol: Consequently, serum ACE activity was estimated in animals before and after administration of gentamicin using the synthetic ACE-specific substrate, hippuryl-histidyl-leucine (Shihabi and Scaro, 1981). The released product (His-Leu) was fluorimetrically measured after reaction with ophthaldehyde in time-fixed assays. Briefly, 20 μl of 10 times diluted plasma was mixed with 20 μl Hip-His-Leu (final conc.=1 mM) made up to 50 μl with 10 μL of 100 mM Tris-HCl, 300 mM NaCl, pH 8.3. The samples were then mixed and incubated in 37° C. water bath for 30 minutes. To detect the generated His-Leu, 120 μl of 0.3 N NaOH and 10 μl o-phthaldehyde were then added and the samples briefly vortexed and incubated at room temperature for 10 minutes. To terminate the derivitisation reaction, 20 μl of 3N HCl was added and the samples centrifuged for 5 minutes at 15, 000 rpm to remove insoluble residue. The resulting supernatant was transferred to a black 96 well plate and fluorescence read at excitation=355 nm, emission=485 nm in a fmax fluorescence detector (Molecular Biosystems, USA). Results were corrected for blank fluorescence detected in the absence of Hip-His-Leu. Results are expressed as nmol of His-Leu generated per minute of reaction time per ml of plasma (nmol/min/ml).
The test system of data set [8] is Escherichia coli (ATCC 25922). As to the kind of experiment: Bactericidal studies: MIC of gentamicin in presence and absence of aminoguanidine. Type of data set: cell-based. The method, then:
A standardised E coli (ATCC 25922) was then inoculated into the broth and the lowest concentration of gentamicin to inhibit the growth of the bacterium determined (MIC). Results are expressed in milligrams of gentamicin per litre. Studies were performed in duplicate on two separate occasions by a blinded operator. A clinically significant change was defined as an increase in the MIC by two or more doubling dilutions.

For data set [9] the following is noted: prospective studies, gentamicin for over 7 days; cited from earlier work.
Data set [10] has as its system Male Sprague-Dawley rats. As to the kind of experiment: Urinary nitrate/nitrite (NOx) excretion by Griess reaction. Type of data set: in vivo, rat. Particulars: per mg creatinine, after treatment. How it is done:
As a marker of renal NO generation, daily excretion of urinary nitrate/nitrite (NOx) was measured using the Griess reaction (Komers et al., 1994; Miranda et al., 2001). Briefly, 0.5 ml of urine was centrifuged at 10,000 g for 15 minutes, the supernatant removed and diluted fivefold using deionised water. From each sample 50 μl was dispensed into a 96-well plate followed by 50 μl of freshly prepared vanadium chloride solution (0.8 mg/ml in 1M HCl) and immediately followed by 50 μl of Griess reagent (2% sulphanilamide in 1.47M hydrochloric acid) and 0.1% N-(1-aphthyl)ethylenediamine dihydrochloride in deionised water. […] Each sample was assayed in triplicate. Urinary NOx excretion was expressed as μmol/mg creatinine.
(Griess reagent forms a coloured azo dye with nitrite.)

The mark [11] stands for this setting: following 8-days of treatment, Mean ± SEM.
The mark [12] stands for this setting: serum, following 8-days of treatment, Mean ± SEM.

Consider `N=C(N)NN` [aminoguanidine], for which, in data set [1], the Half life was 4 h. For the same molecule, in data set [2] (rat, in vivo), the “Staining for CML-AGE in kidney” value is given as “able to reduce staining for CML-AGE”. In [3], the Urinary potassium excretion result is recorded as “reduced”. Further, the “Reduction of gentamicin content of the renal cortex” value in data set [4] (FIG. 5, after 8 days, aminoguanidine co-administered with gentamicin, vs gentamicin alone, p<0.001) was “approximately two thirds”. The “Serum gentamicin levels at day 2 and day 5” value in [4] (effect of co-administration of aminoguanidine) is listed as “unaffected”. Moreover, in data set [5] (rat, in vivo), the “Fragmented and condensed nuclei (apoptotic cells) per field” value is listed as 1-2 per field; the “Tubular expression of glutathione peroxidase-3” value is “not significantly changed”. Also, in data set [6] (rat, in vivo), the Normalised kidney weight entry was “reduced the renal weight” and the “Renal blood flow as estimated by the clearance of endogenous hippurate” value is 12.1 ± 1.1 mL/min.
As to `CNC(C)C1CCC(N)C(OC2C(N)CC(N)C(OC3OCC(C)(O)C(NC)C3O)C2O)O1` (stereo not drawn) [Gentamicin, gentamicin], the ACE activity in [7] turned out to be 5.1 ± 0.4 nmol/mL/min. Also, the “Staining for CML-AGE in kidney” value in data set [2] (FIG. 7, aminoguanidine group also received gentamicin) is recorded as “substantially increased”. Also, in data set [2] (FIG. 8), the “Serum AOPPs” value is recorded as “elevated to approximately the same extent”. Besides, the “Serum MDA-linked fluorescence” value in data set [2] (FIG. 8, compared to sham animals or those receiving aminoguanidine) is “elevated”. Besides, in [2] (after 8 days, aminoguanidine group also received gentamicin), the “Circulating levels of LMW-AGEs” value is “elevated to over twice the level seen in untreated animals”. Also, the “Cortical AGE-fluorescence” value in data set [2] (arbitrary units, untreated 1.0±0.3, p=NS) is reported as 1.2±0.3. In addition, the MIC for gentamicin in data set [8] (in the absence of aminoguanidine) was determined as 0.2 µg/mL. Also, in [8] (in the presence of aminoguanidine at 10 μg/ml), the MIC for gentamicin stood at 0.3 µg/mL. In data set [8] (in the presence of aminoguanidine at 100 μg/ml), the MIC for gentamicin is 0.2 µg/mL. For the same molecule, the MIC for gentamicin in [8] (in the presence of aminoguanidine at 1 mg/ml) was determined as 0.5 µg/mL. Moreover, the “Tubular necrosis (PAS histology of renal cortex)” value in [5] (FIG. 3, after 8 days of treatment) is “extensive and marked tubular necrosis”. The “Tubular expression of glutathione peroxidase-3” value in data set [5] (FIG. 4, in situ hybridization, aminoguanidine group also received gentamicin) is “significantly reduced”. In addition, the “Fragmented and condensed nuclei (apoptotic cells) per field” value in data set [5] (tubular nuclei, propidium iodide, aminoguanidine group also received gentamicin) is 12±2 per field. Also, in [6] (FIG. 2, aminoguanidine group also received gentamicin), the Normalised kidney weight result is “significantly higher”. Further, in data set [6] (after 8 days gentamicin, aminoguanidine group also received gentamicin), the “Renal blood flow as estimated by the clearance of endogenous hippurate” value is 8.1 ± 1.1 mL/min. Moreover, the “Urine Volume” value in data set [6] (following 8-days of treatment, gentamicin 50 mg/kg/d s.c., Mean ± SEM) worked out at 29 ± 6 mL/day. Also, in data set [6] (setting [11]), the FeCa is recorded as 6 ± 3%, the FeK was 70 ± 20 %, the FeMg is reported as 21 ± 5 % and the “Urine ALT” value is given as 10.5 ± 4.6 U/ml. Further, in data set [6] (setting [11]), the “Urine AP” value came to 119 ± 29 U/ml, the “Urine AST” value was 147 ± 62 U/ml and the “Urine LDH” value worked out at 489 ± 100 U/ml. The Creatinine clearance in data set [6] (following 8-days of treatment, Mean ± SEM, none in table head) came out at 1.3 ± 0.3 mL/min. Further, in data set [6] (gentamicin alone, 8 days), the “Fall in creatinine clearance compared to untreated animals” value was “greater than 50%”. For the same molecule, the “Serum LDH” value in [6] (marker of renal injury, after treatment) turned out to be 380 ± 76 IU/ml. In data set [6] (setting [12]), this molecule gave a Creatinine of 122 ± 55 µM and a Urea of 20.1 ± 5.6 mM. Besides, in data set [9], the “Patients showing signs of nephrotoxicity” value was “up to 50%”. In data set [10], the “Urine NOx” value was 4.1 ± 0.4 µmol/mg.
